The numbers were not newly measured in PMC11320581 (ACS Infectious Diseases, 2024), which cites them from elsewhere.

For the data set, the system named is M. tuberculosis gyrase with single-resistance mutations at GyrA Ala90 and Asp94. The conditions noted are these: cited from earlier work.

For the molecule `C[C@@H]1CN2c3c(cc4c(N5C(=O)OC[C@@H]5C)noc4c3F)CC3(C(=O)NC(=O)NC3=O)[C@H]2[C@H](C)O1` [zoliflodacin, Zoliflodacin], the “maximal double-stranded DNA scission with fluoroquinolone-resistant gyrases, fold higher than wild-type” value was 2- to 5 fold.
